Results from patent publication US8269022B2, “Polymorphs of enantiopure erdosteine” (Edmond Pharma S.R.L, priority 2007, dated 2012).

Experiments:
[1] = Flowability test (flow through the funnel); format: physicochemical; settings: for Flowing time (mean value): flowability comparison, powder
Text: These advantages will be clearer by considering the following comparison between Form I of S-Erdosteine and the amorphous racemic form. […] Conversely, Form I has a mean flowing time of about 35 seconds, which allows to handle and transfer the powder more easily, and to avoid the use or reduce the amount of glidants in the finished pharmaceutical formulation.

[2] = Dissolution rate test (Intrinsic Dissolution Rate) of 150 mg tablets in 0.1M hydrochloric acid; format: physicochemical; settings: FIG. 10
Protocol: A dissolution rate test was performed in order to define the Intrinsic Dissolution Rate of Erdosteine Form I and Racemic Erdosteine. Six thin 150 mg tablets of S-erdosteine Form I and six 150 mg tablets of racemic Erdosteine were prepared by compression with a 10 ton press and their dissolution profile in 0.1M hydrochloric acid was evaluated. The two profiles are reported in FIG. 10, superimposed on the same graph. As can be clearly seen, the dissolution profile of Form I is very different from that of racemic, non-polymorphic Erdosteine. In fact, after 15 minutes more than 80% Form I is dissolved, while more that 25 minutes are necessary to dissolve 40% racemic Erdosteine. The higher solubility of Form I allows to obtain an improved pharmaceutical form in terms of dosage and bioavailability.

SMILES	Flowing time (mean value) [1]	flowability (flow through the funnel) ([1]; result in words)	time necessary to dissolve 40% [2]	mean flowing time ([1]; powder through the funnel)	amount dissolved ([2]; after 15 minutes)
O=C(O)CSCC(=O)NC1CCSC1=O (racemic) [Racemic Erdosteine]	∞	does not flow through the funnel	> 25 min		
O=C(O)CSCC(=O)NC1CCSC1=O (stereo not drawn) [Erdosteine Form I]	35.6″			about 35 seconds	more than 80%
